Measured values: US10471054B2, “CDK1 inhibitors of acetyl chrysin mannich base derivatives, synthesis and use thereof” (priority 2016, dated 2019)
In brackets after ≈: the same amount, converted by molar mass. Like-named read-outs stand apart in the source and are kept apart here.

Columns and labels:
[1] = Solubility in Octanol, water and pH media; assay type: physicochemical
Experimental: The solubility and log P of acetyl ChrysinMannich base derivatives see TABLE 1.
(§1) CH-j is pKa 5.3, log P 1.63 in Octanol/Water at 37° C. […] (BA-j 77m/ml). CH-j belongs to BCS II (low solubility, high permeability) and solubility presents the pH dependence. […] CH-j is a pH dependent fast release. […] It is speculated that CH-j has more appropriate log P and solubility with more likely entering tissue cells than others solubility acetyl Chrysin Mannich base derivatives.
(§2) (about 20 times BA-f 277 μg/ml) and 564 μg/ml in water at 37° C. (about 1000 times BA-f 0.53m/ml). CH-f is BCS I (high solubility and permeability) and solubility presents the pH dependence. It is speculated that CH-f has more appropriate log P and solubility with entering systemic (blood system and tissue cells) than others solubility acetyl Chrysin Mannich base derivatives.

pKa = assay type: physicochemical
Experimental: as §1, §2

Hep G2 = assay: NaOCl level, BODTPY-OCl fluorescent probe imaging; assay type: cell-based; settings: CH-j 40 μM or HCPT 5 μM for 4 h
Experimental: In vitro cultured Hep G2 was given by BODTPY-OCl selective fluorescent probe 5 μM for 0.5 h, added CH-j 40 μM or HCPT 5 μM for 4 h, and performed fluorescence imaging.

BGC-823 [2] = assay: Anti-cancer cells proliferation activity (MTT, 48 h); assay type: cell-based; settings: Homo sapiens, BGC-823, MTT
Experimental: (§3) Anti-cancer cells proliferationactivity of in vitro CH-j and CH-f were shown in TABLE 2 for the results of the screening of 5 cancers cells.
FIG. 2: The initial screening results of the anticancer activity of BGC-823 (MTT, for 48 h), and X-coordinate is the drug concentration (MTT, for 48 h), and Y-coordinate the cell survival rate (%) in vitro.

[3] = system: 5 cancers cells (MCF-7, H-460, BGC-823, PC-3, Hep G2); assay: Anti-cancer cells proliferation activity, average of 5 cancer cells; assay type: cell-based; settings: for IC50: average of 5 cancer cells
From the text: as §3

BGC-823 [4] = assay: Annexin V-FITC-PI double fluorescence, apoptosis and necrosis; assay type: cell-based; settings: 24 h
From the text: There is a series of morphological characteristic changes in the apoptosis of cells, in which the change of the plasma membrane is one of the characteristics of early apoptosis. The cytoplasm is flipped from the inside of the cytoplasm to the outer surface of the cell when the cell apoptosis, Annexin V is a Ca^++ dependent phospholipid binding protein, which has a high affinity with phospholipid-peptide-serine, which can be combined with the phospholipid peptide specificity that is exposed to the extracellular cells. However, cytoplasm transfer to cell membrane is not unique to apoptosis, but also can occur in cell necrosis. The difference between the two cell death modes is that the cell membrane is intact in the initial stage of apoptosis, and the integrity of the cell membrane in its early stage is destroyed. PI is a nucleic acid dye that cannot pass through the intact cell membrane, but in the cell and necrotic cells in the middle and late stage of apoptosis, the PI can dye the nucleus through the cell membrane. Annexin V-FITC-PI was used to detect apoptosis and necrotic cell ratio on flow cytometry.
A relatively small increase in apoptotic cells is increased.
FIG. 3-3 Annexin V-FITC/PI staining results for BGC-823.

MCF-7 = assay: Autophagy in MCF-7; assay type: cell-based; settings: 50 μM for 9 h and 24 h
[5] = Pharmacokinetics by oral in monkey (urine drug concentration-time curve); assay type: in vivo; settings: for Tmax: po
Experimental: Chromatographic conditions and the system applies: with C18 chromatographic column (acid the tall secretory effect, 5 μm, 4.6*150 mm), in acetonitrile-methanol-water-mesylate (25:20:55:0.15) as mobile phase, detection UV 283 nm, the velocity 1 ml/min, and the sample volume 20 μl. The theoretical plate number is not less than 2000 according to CH-j peak.
Sample solution: after the macaques were drugged, the catheter was inserted. The urine by oral CH-j 5 mg/kg is collected, added the methanol at 1:4 (v:v), centrifuge and remove the liquid to measure. Control solution is CH-j methanol solution 5 μg/ml. The log P of CH-j is larger, the fat solubility strong, and absorption distribution in the body very rapid, the urine drug concentration-time curve consistent with the typical two-compartment model. Tmax1, 1.3 h, Cmax1 is […]. […] The apparent distribution volume (Vd) 42 L, mainly distributed in body fluid (BA-j Vd 12.6 L, mainly distributed in blood. See Fitoterapia, 2015, 107: 36-34)
FIG. 5: The concentration of urine drug concentration-time curve in monkey (n=6) by CH-j oral 5 mg/kg, X-coordinate is oral CH-j time (h) and Y-coordinate is the concentration of CH-j (μM).

[6] = Main metabolic pathways, glucose aldehyde acid metabolism; settings: in vivo
From the text: (I) Neutral degradation in normal cells: CH-j is hydrolyzing into Hydroxy-phenyl-acetic acid (M152), 1-(2, 4, 6-Trihydroxy-phenyl)-ethanone (M168) and N-hydroxymethyl-piperidin-4-one (M129) as the main metabolic pathways.
Flavopiridol, p276-00 and Vorciclib of Chrysin-organic amine derivatives, duo to mainly C7-glucose aldehyde acidification metabolites by oral, only a small amount is into the tissue cells. In the tissue cells, it is not easy to be metabolized in part because of the organic amine substituents, thus producing strong cytotoxicity. […] CH-j can enhance I phase metabolism and inhibit II phase metabolism. […] [Scientific Reports, 2015, 5: 13626; Fitoterapia, 2015, 107:36-34.]

[7] = Tissue distribution in rat, 2 h; assay type: in vivo
Experimental: The distribution results of CH-j tissue distribution were shown in FIG. 6, when CH-j 100 mg/kg rat by venous intravenous (i.v.) or oral (p.o.) 2 h. […] CH-j by oral in the stomach concentration of the large, about 2 time higher than other tissues. […] Compared with the intravenous administration, the oral administration was completely absorbed and the bioavailability was close to 100%.
FIG. 6: 2 h distribution of the drug (100 mg/kg) by CH-j rats: Y-coordinate is the concentration of CH-j (μg/g), by intravenous (i.v.), by oral (p.o.).

[8] = oral 5 mg/kg, monkey, urine drug concentration
[9] = oral, monkey (n = 6), 3 mg/kg in Table 4, 5 mg/kg in text

- BCS class [1]: BCS II
- Solubility in Octanol relative to BA analogue ([1]; CH-j vs BA-j, CH-f vs BA-f, 37° C.): about 6 times
- solubility ([1]; organic solvent or mixture, Octanol, 37° C., read-out: Solubility in Octanol): 2420 µg/mL (≈ 5910 µM)
- solubility ([1]; pH 1.2, simulated gastric fluid, 0.1M HCl (pH1.2), 37° C., read-out: Solubility): 574 µg/mL (≈ 1400 µM)
- solubility ([1]; pH 4.5, aqueous buffer, 0.05M NaAC-HAC buffered solution (pH4.5), 37° C., read-out: Solubility): 528 µg/mL (≈ 1290 µM)
- solubility ([1]; pH 6.8, aqueous buffer, PBS (pH6.8), 37° C., read-out: Solubility): 78 µg/mL (≈ 191 µM)
- solubility ([1]; water, 37° C., read-out: Solubility in H2O): 56 µg/mL (≈ 137 µM)
- pKa (pKa): 5.3
- IC50 (BGC-823 [2]): 6.3 ± 1.13 µM
- IC50 [3]: 2.6 µg/mL
- IC50 ([3]; MTT, 48 h): 6.3 µM
- Maximum drug concentration, times higher than Chrysin ([5]; monkey, in vivo): about 40 times
- Cmax1 [5, 8]: 26.4 µM
- Cmax2, redistributive period [5, 8]: 13.2 µM
- V d [5, 9]: 42 L
- t1/2β [5, 9]: 6.2 h
- Tmax ([5]; rhesus, monkey, urine, monkey (n = 6), 3 mg/kg in Table 4, 5 mg/kg in text, read-out: T max (Tmax1)): 1.3 h
- Tmax ([5]; rhesus, monkey, urine, monkey (n = 6), 3 mg/kg in Table 4, 5 mg/kg in text, read-out: T max, redistributive period (Tmax2)): 9 h
- concentration at 24 h ([5]; rhesus, urine, oral 5 mg/kg, monkey): < 3 µM
- Cmax ([5]; rhesus, urine, oral, monkey (n = 6), 3 mg/kg in Table 4, 5 mg/kg in text): 26.4 µM
- Dependence of metabolic pathway on CYP3A4 [6]: independent of CYP3A4
- Concentration in the stomach relative to other tissues ([7]; 100 mg/kg rat, oral, 2 h): about 2 time
- bioavailability ([7]; in vivo, rat 100 mg/kg, oral compared with intravenous): ~100%
- Blood-brain barrier passage ([7]; rat 100 mg/kg, 2 h): able to pass the blood-brain barrier
Structure (SMILES): CC(=O)c1c(O)c(CN2CCC(O)CC2)c2oc(-c3ccccc3)cc(=O)c2c1O [CH-j, 6-Acetyl-5,7-dihydroxy-8-(4-hydroxy-piperidin-1-ylmethyl)-2-phenyl-chromen-4-one]
- NaOCl, yellow green fluorescence (Hep G2): not present yellow green fluorescence
- Anti-proliferative activity, times stronger than BA-j [3]: 2 times
- Anti-proliferative activity, times stronger than Chrysin [3]: 5 times
- Apoptosis and necrosis by Annexin V-FITC-PI (BGC-823 [4]): induce apoptosis the BGC-823 with obvious dose-dependent manner
- Autophagy (MCF-7): can cause autophagy
- Detection of prototype drug in blood, urine, tissues ([7]; rat): In the blood, urine, bile and tissues, the prototype drugs and metabolites can be detected
